This is an account of results in paper PMC3530532, “Corticosteroid-Binding Globulin: Structure-Function Implications from Species Differences” (PLoS ONE, 2012).

One experiment has as its target T1, Human CBG-WT (Homo sapiens, UniProt P08185, K148A).
T1 construct: residues 11 to 383 of human CBG (Swiss-Prot entry P08185); GST (N, cleaved yes); made in house; host or cells: E. coli BL21 Star (DE3)
T1 sequence (P08185 33-405 K148A): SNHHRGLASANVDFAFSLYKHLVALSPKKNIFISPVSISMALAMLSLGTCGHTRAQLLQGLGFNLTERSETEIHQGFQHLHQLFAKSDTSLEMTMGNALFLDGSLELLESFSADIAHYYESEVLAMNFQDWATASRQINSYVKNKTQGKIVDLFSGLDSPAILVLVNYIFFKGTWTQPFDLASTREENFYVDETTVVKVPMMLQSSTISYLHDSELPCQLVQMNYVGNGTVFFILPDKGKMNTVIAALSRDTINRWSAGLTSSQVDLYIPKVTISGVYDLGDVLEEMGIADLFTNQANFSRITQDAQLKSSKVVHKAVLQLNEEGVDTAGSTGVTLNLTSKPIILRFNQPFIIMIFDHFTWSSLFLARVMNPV
Briefly: Isothermal titration calorimetry, steroid titrated to uncleaved human CBG-WT. In kind it is binding. The following applies: ITC, 25°C. The protocol:
(§1) The coding sequences of residues 11 to 383 of human CBG (Swiss-Prot entry P08185) and residues 5 to 374 of rat CBG (P31211) were cloned into a pGEX-2T vector (GE Healthcare, Uppsala), yielding N-terminal glutathione-S-transferase (GST) fusion proteins. Mutations were introduced using a two-stage PCR procedure based on the QuikChange (Stratagene, Santa Clara) site-directed mutagenesis protocol. All experiments with human CBG were conducted with a mutant in which surface residue Lys126 was replaced by alanine in order to facilitate crystallization. Wild-type rat CBG (rat CBG-WT) and rat CBG mutants CBG-RCL1, CBG-RCL2 and CBG-RCL3 were produced to probe the function of the RCL residues in rat CBG. All gene constructs were confirmed by DNA sequencing prior to protein production.
(§2) The GST-tagged human and rat CBG variants were produced in E. coli BL21 Star™ (DE3) cells (Invitrogen, Carlsbad) using the ZYM-5052 auto-inducing medium. For each variant, 10 L of ZYM-5052 medium containing 100 µg/mL ampicillin were inoculated with an overnight culture of a single clone. The flasks were incubated at 37°C until the optical density at 600 nm reached 0.3. The temperature was then lowered to 20°C, and the cells were allowed to grow for an additional 20 h. The pellet was resuspended in PBS buffer (pH 7.4) containing 5 mM EDTA after cell harvesting (4 mL of buffer per gram of pellet).
(§3) The protein samples were dialyzed against ITC buffer (20 mM potassium phosphate, 50 mM NaCl, pH 7.4) and titrated with steroids in a VP-ITC microcalorimeter (Microcal, Piscataway). All solutions were filtered (0.2 µm filter pore size) and degassed for 30 min prior to the titration experiments. The sample cell was filled with protein solution containing 15 µM rat CBG or 20 µM human CBG and titrated with steroid solutions containing 150 µM and 200 µM ligand, respectively. The titrations consisted of an initial injection of 2 µL followed by 25 consecutive injections of 10 µL ligand solution at 25°C. A spacing of 240 sec between the injections was used to allow a return to the baseline. Data points from the initial injection, which are generally affected by diffusion during the initial equilibration period after experiment setup, were discarded prior to data analysis. […] The binding curve was generated by plotting the heats of injections against the ratio of ligand to protein in the cell. Integrated heat data were analyzed using nonlinear regression fit with a one-site-binding model in the Origin-7™ software provided with the VP-ITC. Changes in the free energy and entropy can be calculated using the equation: ΔG° = −RTlnK = ΔH°−TΔS°. In this equation ΔG° is the change in Gibbs free energy, R the universal gas constant, T the temperature, and K the association constant. […]

The next experiment has as its target uncleaved human CBG. Details: method as in PMID 21325280. The following applies: cited from earlier work.
For another experiment, the target named is T2, Rat CBG-WT (Rattus norvegicus, UniProt P31211).
T2 construct: residues 5 to 374 of rat CBG (P31211); GST (N, cleaved yes); made in house; host or cells: E. coli BL21 Star (DE3)
T2 sequence (P31211 27-396): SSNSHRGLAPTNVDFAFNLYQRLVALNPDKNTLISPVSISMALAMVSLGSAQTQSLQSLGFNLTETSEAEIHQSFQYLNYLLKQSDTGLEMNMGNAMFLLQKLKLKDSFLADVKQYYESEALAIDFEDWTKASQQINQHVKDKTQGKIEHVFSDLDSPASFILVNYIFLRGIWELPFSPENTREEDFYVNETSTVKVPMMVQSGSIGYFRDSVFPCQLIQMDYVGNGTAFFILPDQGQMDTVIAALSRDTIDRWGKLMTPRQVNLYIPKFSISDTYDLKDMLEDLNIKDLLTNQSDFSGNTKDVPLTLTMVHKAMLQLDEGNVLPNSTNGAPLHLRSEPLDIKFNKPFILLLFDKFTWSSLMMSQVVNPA
Briefly: Isothermal titration calorimetry, steroid titrated to rat CBG-WT. The following applies: ITC, 25°C. Format: binding. The procedure: as §1, §2
The protein samples were dialyzed against ITC buffer (20 mM potassium phosphate, 50 mM NaCl, pH 7.4) and titrated with steroids in a VP-ITC microcalorimeter (Microcal, Piscataway). All solutions were filtered (0.2 µm filter pore size) and degassed for 30 min prior to the titration experiments. The sample cell was filled with protein solution containing 15 µM rat CBG or 20 µM human CBG and titrated with steroid solutions containing 150 µM and 200 µM ligand, respectively. The titrations consisted of an initial injection of 2 µL followed by 25 consecutive injections of 10 µL ligand solution at 25°C. A spacing of 240 sec between the injections was used to allow a return to the baseline. Data points from the initial injection, which are generally affected by diffusion during the initial equilibration period after experiment setup, were discarded prior to data analysis. […] The binding curve was generated by plotting the heats of injections against the ratio of ligand to protein in the cell. Integrated heat data were analyzed using nonlinear regression fit with a one-site-binding model in the Origin-7™ software provided with the VP-ITC. Changes in the free energy and entropy can be calculated using the equation: ΔG° = −RTlnK = ΔH°−TΔS°. In this equation ΔG° is the change in Gibbs free energy, R the universal gas constant, T the temperature, and K the association constant. The change in enthalpy is denoted as ΔH°, and ΔS° is the change in entropy under standard conditions. The data shown in Table 2 were obtained from single titrations of each complex.
In general terms: In ITC the heat of successive injections is recorded.

For a further experiment, the target named is T3, Rat CBG-RCL1 (Rattus norvegicus, UniProt P31211, A357V/P358T).
T3 construct: residues 5 to 374 of rat CBG (P31211); GST (N, cleaved yes); made in house; host or cells: E. coli BL21 Star (DE3)
T3 sequence (P31211 27-396 A357V/P358T): T2 sequence (P31211 27-396) with A331V, P332T
Briefly: Isothermal titration calorimetry, steroid titrated to uncleaved rat CBG-RCL1. Format: binding. Particulars: ITC, 25°C. The protocol:
as §1, §2, §3

In the next experiment the target is human CBG. Details: method as in PMID 20631013. Particulars: 37°C, fluorescence measurements; cited from earlier work.

Positions count from the first letter of the chain named. Like-named read-outs stand apart in the source and are kept apart here.

Regarding `C[C@]12CCC(=O)C=C1CC[C@@H]1[C@@H]2[C@@H](O)C[C@@]2(C)[C@H]1CC[C@]2(O)C(=O)CO` [Hydrocortisone], the Kd on Human CBG-WT (single titration, uncleaved human CBG-WT (K126A, E. coli produced)) was 45 ± 7 nM; on uncleaved human CBG (22°C, uncleaved human CBG, fluorescence titration, read-out: binding affinity), 26.9 nM; on uncleaved human CBG (37°C, uncleaved human CBG-WT, read-out: K d 37°C), 292 ± 19 nM; on Rat CBG-WT (single titration, uncleaved rat CBG-WT), 122 ± 6 nM; on Rat CBG-RCL1 (single titration), 95 ± 7 nM; on human CBG it was 18 nM. Moreover, the figures for the “TΔS°” value on Human CBG-WT (uncleaved human CBG-WT), on Rat CBG-WT (rat CBG-WT) and on Rat CBG-RCL1 were -26.08 kcal/mol, -20.3 kcal/mol and -29.02 kcal/mol, respectively. The figures for the “ΔG°” value at Human CBG-WT (uncleaved human CBG-WT), on Rat CBG-WT (rat CBG-WT) and on Rat CBG-RCL1 were -10.1 kcal/mol, -9.44 kcal/mol and -9.61 kcal/mol, respectively. The “ΔH°” value at Human CBG-WT (uncleaved human CBG-WT) was -36.14 kcal/mol; on Rat CBG-WT (rat CBG-WT), -29.78 kcal/mol; at Rat CBG-RCL1, -38.62 kcal/mol.
